Values of other authors as cited in patent US11857530B2, “Cannabinoid formulations” (Endocanna Health, Inc., priority 2017, dated 2024).

Key:
CYP3A4 = CYP3A4 (Homo sapiens, UniProt P08684); settings: after oromucosal dosing; for boost of THC and CBD levels by ketoconazole: co-administered CYP3A4 inhibitor ketoconazole; for boost of THC and CBD levels by the CYP3A4 inhibitor ketoconazole: clinical studies, co-administered ketoconazole
ABCB1 = ABCB1 (Homo sapiens, UniProt P08183)
Sequence of ABCB1 (P08183 whole entry): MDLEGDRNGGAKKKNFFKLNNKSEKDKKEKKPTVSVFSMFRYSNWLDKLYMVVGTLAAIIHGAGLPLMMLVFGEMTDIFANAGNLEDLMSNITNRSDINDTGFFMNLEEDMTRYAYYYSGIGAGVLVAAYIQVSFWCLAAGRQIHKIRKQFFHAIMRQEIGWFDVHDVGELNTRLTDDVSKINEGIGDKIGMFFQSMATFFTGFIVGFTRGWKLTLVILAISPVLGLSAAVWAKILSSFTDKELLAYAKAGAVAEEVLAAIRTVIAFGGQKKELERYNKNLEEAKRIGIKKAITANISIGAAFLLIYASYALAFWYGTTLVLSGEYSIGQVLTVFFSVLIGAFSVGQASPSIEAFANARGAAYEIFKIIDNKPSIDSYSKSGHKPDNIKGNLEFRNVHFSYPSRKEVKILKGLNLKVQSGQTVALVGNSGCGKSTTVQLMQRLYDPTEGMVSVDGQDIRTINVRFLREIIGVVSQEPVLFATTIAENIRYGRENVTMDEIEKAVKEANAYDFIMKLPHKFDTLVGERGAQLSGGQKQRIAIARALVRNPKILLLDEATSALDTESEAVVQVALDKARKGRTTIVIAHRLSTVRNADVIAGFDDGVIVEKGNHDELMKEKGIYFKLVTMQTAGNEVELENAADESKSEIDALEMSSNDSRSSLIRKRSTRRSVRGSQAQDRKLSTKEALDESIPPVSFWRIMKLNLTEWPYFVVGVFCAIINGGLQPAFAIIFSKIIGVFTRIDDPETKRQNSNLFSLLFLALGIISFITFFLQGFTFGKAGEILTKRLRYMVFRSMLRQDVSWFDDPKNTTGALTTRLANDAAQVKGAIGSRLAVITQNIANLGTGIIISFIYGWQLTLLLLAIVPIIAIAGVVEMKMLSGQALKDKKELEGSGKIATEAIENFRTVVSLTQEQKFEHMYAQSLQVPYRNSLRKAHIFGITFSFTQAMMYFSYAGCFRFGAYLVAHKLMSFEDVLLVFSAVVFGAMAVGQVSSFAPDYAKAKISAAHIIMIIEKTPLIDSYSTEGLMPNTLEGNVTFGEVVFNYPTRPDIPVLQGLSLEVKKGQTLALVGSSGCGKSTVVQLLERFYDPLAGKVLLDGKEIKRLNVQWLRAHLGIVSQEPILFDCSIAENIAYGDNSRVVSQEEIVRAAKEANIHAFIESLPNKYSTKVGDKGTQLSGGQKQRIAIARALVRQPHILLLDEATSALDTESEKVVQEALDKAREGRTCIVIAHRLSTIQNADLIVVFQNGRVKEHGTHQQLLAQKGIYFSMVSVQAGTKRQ

Sequence of CYP3A4 (P08684 whole entry): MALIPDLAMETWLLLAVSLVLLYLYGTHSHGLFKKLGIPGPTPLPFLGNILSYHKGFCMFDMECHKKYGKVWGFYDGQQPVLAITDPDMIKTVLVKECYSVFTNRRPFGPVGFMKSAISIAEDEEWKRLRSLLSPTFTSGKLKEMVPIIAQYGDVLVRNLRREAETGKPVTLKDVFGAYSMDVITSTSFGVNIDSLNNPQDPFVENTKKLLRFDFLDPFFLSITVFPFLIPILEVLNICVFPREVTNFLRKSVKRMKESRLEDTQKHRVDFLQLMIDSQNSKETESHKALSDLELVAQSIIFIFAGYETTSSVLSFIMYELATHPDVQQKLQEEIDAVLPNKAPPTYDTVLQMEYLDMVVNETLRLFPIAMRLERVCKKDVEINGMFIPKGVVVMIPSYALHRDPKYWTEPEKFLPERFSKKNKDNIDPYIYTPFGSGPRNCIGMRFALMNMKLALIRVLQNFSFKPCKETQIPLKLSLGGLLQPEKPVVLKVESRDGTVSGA

Row | SMILES | boost of THC and CBD levels by ketoconazole (CYP3A4) | boost of THC and CBD levels by the CYP3A4 inhibitor ketoconazole (CYP3A4) | THC levels, fold lower, Homozygous MINOR Alleles (T/T) (ABCB1; ABCB1 SNIP 2-01-AFMLG, genotype T/T) | blood THC levels after consuming THC (ABCB1; users with homozygous alleles (T/T) at rs1045642 of ABCB1, relative to people with a different genotype)
1 | CCCCCc1cc(O)c2c(c1)OC(C)(C)[C@@H]1CCC(C)=C[C@@H]21 [THC, Tetrahydrocannabinol] | approximately 2 fold | dosing by approximately 2-fold | may have 2-fold lower | two-fold lower
2 | C=C(C)[C@@H]1CCC(C)=C[C@H]1c1c(O)cc(CCCCC)cc1O [CBD, Cannabidiol] | approximately 2 fold | dosing by approximately 2-fold | – | –
